Results: patent US20140051679A1, “KINASE INHIBITORS AND METHOD OF TREATING CANCER WITH SAME” (UNIVERISTY HEALTH NETWORKS, priority 2011, published 2014)

Legend:
human TTK = target: T1, human TTK (Homo sapiens, UniProt P33981); assay: TTK inhibition assay (indirect ELISA); assay type: biochemical; conditions: GST-TTK 0.68 nM, 16 μM ATP; read-out: IC50 Ranges TTK
T1 construct: amino terminal GST fusion of full length human TTK; purchased Invitrogen
T1 sequence (P33981 1-857): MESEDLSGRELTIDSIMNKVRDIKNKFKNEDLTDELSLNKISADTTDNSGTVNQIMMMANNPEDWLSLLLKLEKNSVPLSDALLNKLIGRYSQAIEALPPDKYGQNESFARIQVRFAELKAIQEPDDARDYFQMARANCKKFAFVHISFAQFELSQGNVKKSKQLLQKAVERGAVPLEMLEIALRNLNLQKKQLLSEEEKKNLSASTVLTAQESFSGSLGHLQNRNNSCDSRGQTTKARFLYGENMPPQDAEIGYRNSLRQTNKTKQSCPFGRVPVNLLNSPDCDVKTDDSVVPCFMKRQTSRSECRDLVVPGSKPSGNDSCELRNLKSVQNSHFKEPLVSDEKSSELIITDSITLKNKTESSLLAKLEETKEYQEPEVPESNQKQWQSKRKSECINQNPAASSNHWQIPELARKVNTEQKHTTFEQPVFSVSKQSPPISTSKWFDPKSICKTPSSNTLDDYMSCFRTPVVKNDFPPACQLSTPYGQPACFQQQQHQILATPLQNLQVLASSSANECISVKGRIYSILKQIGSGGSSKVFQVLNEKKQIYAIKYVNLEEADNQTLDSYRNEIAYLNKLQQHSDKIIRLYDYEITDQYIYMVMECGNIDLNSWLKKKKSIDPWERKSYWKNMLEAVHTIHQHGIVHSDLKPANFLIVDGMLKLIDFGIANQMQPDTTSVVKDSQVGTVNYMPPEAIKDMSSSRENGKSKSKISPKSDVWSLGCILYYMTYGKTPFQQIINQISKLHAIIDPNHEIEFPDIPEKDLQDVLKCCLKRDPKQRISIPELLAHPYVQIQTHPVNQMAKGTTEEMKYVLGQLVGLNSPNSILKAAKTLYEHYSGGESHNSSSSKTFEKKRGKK

human PLK4 = target: T2, human PLK4 (Homo sapiens, UniProt O00444); assay: PLK4 inhibition assay (indirect ELISA); assay type: biochemical; conditions: GST-PLK4 4 nM, 15 μM ATP; read-out: IC50 Ranges PLK4
T2 construct: amino terminal GST fusion of residues 1-391 of human PLK4; made in house; host or cells: E. coli
T2 sequence (O00444 1-391): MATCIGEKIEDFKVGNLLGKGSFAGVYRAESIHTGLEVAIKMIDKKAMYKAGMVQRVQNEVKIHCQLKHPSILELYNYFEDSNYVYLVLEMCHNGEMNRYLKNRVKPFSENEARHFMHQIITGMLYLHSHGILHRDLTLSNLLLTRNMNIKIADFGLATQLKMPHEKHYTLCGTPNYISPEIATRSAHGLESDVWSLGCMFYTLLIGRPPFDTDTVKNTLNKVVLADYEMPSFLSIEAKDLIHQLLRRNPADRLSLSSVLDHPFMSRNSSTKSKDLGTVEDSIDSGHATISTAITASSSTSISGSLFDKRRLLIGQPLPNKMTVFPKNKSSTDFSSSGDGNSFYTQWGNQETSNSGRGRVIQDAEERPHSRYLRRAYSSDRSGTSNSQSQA
Protocol: Active PLK4 was purified from an E. coli expression system as an amino terminal GST fusion of residues 1-391 of human PLK4. The protein was purified from clarified cell extracts after induction at 15° C. overnight using glutathione sepharose, gel permeation chromatography, and ion exchange (Resource Q). The resulting protein was dephosphorylated with lambda phosphatase (NEB cat#P0753), and resolved from the phosphatase using gluthione sepharose. The dephosphorylated GST-PLK4 was stored in aliquots at −80° C. until use.
PLK4 activity was measured using an indirect ELISA detection system. GST-PLK4 (4 nM) was incubated in the presence of 15 μM ATP (Sigma cat#A7699), 50 mM HEPES-Na^2+ pH 7.5, 10 mM MgCl2, 0.01% Brij 35 (Sigma cat#03-3170), in a 96 well microtitre plate pre-coated with MBP (Millipore cat#30-011). The reaction was allowed to proceed for 30 minutes, followed by 5 washes of the plate with Wash Buffer (phosphate buffered saline supplemented with 0.2% Tween 20), and incubation for 30 minutes with a 1:3000 dilution of primary antibody (Cell Signaling cat#9381). The plate was washed 5 times with Wash Buffer, incubated for 30 minutes in the presence of secondary antibody coupled to horse radish peroxidase (BioRad cat#1721019, 1:3000 concentration), washed an additional 5 times with Wash Buffer, and incubated in the presence of TMB substrate (Sigma cat#T0440). The colourimetric reaction was allowed to continue for 5 minutes, followed by addition of stop solution (0.5 N sulphuric acid), and quantified by detection at 450 nm with either a monochromatic or filter based plate reader (Molecular Devices M5 or Beckman DTX880, respectively).
Compound inhibition was determined at either a fixed concentration (10 μM) or at a variable inhibitor concentration (typically 0.5 μM to 0.001 μM in a 10 point dose response titration). Compounds were pre-incubated in the presence of enzyme for 15 minutes prior to addition of ATP and the activity remaining quantified using the above described activity assay. The % Inhibition of a compound was determined using the following formula; % Inhibition=100×(1-(experimental value−background value)/(high activity control−background value)). The IC50 value was determined using a non-linear 4 point logistic curve fit (XLfit4, IDBS) with the formula; (A+(B/(1+((x/C)̂D)))), where A=background value, B=range, C=inflection point, D=curve fit parameter.

Aurora B = target: T3, Aurora B (Homo sapiens, UniProt Q96GD4); assay: Aurora B inhibition assay (Z-Lyte); assay type: biochemical; conditions: 28 nM Aurora B, 128 μM ATP; read-out: IC50 Ranges Aurora B
T3 construct: purchased Invitrogen PV3970
T3 sequence (Q96GD4 whole entry): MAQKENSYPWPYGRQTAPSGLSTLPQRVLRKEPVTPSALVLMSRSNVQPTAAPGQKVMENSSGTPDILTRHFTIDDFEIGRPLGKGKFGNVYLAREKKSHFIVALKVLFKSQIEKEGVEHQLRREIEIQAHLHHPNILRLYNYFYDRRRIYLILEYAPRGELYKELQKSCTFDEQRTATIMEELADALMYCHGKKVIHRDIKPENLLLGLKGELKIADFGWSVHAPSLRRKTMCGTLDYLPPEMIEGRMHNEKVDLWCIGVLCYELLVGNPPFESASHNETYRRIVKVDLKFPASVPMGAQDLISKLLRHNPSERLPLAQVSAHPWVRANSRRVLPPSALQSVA
Protocol: Aurora B inhibition was determined using the Z-Lyte assay kit from Invitrogen. The assay was performed using the recommended manufacturer's instructions with 128 μM ATP and 28 nM Aurora B (Invitrogen cat #PV3970). The % inhibition values were determined according to the manufacturer's directions and IC50 values were obtained using a non-linear 4 point logistic curve fit (XLfit4, IDBS)

[1] = test system: MDA-MB-231 breast cancer cells; assay: Cell growth inhibition, Sulforhodamine B assay, MDA-MB-231; assay type: cell-based; conditions: Homo sapiens, 120 h, 5 days culture, SRB assay, read-out: Cell Line GI50 Range MDA-MB-231
[2] = test system: MDA-MB-468 breast cancer cells; assay: Cell growth inhibition, Sulforhodamine B assay, MDA-MB-468; assay type: cell-based; conditions: Homo sapiens, 120 h, 5 days culture, SRB assay, read-out: Cell Line GI50 Range MDA-MB-468
[3] = test system: HCT116 colon cancer cells; assay: Cell growth inhibition, Sulforhodamine B assay, HCT116; assay type: cell-based; conditions: Homo sapiens, HCT-116, 120 h, 5 days culture, SRB assay, read-out: Cell Line GI50 Range HCT116

SMILES	IC50 (human TTK) [µM]	IC50 (human PLK4) [µM]	IC50 (Aurora B) [µM]	GI50 [1] [µM]	GI50 [2] [µM]	GI50 [3] [µM]
CN1CCN(c2ccc(-c3n[nH]c4ccc(NC(=O)C5CCCc6ccccc65)cc34)cc2)CC1 (stereo not drawn) [Example A11, N-(3-(4-(4-methylpiperazin-1-yl)phenyl)-1H-indazol-5-yl)-1,2,3,4-tetrahydronaphthalene-1-carboxamide]	≤ 5	≤ 5	≤ 5	≤ 5	≤ 5	≤ 5
O=C(Nc1ccc2[nH]nc(-c3ccc(CN4CCOCC4)cc3)c2c1)C(c1ccsc1)N1CCCC1 (stereo not drawn) [Example A3, N-(3-(4-(morpholinomethyl)phenyl)-1H-indazol-5-yl)-2-(pyrrolidin-1-yl)-2-(thiophen-3-yl)acetamide]	≤ 5	≤ 5	≤ 5	≤ 5	≤ 5	≤ 5
O=C(Nc1ccc2[nH]nc(-c3cccc(CN4CCOCC4)c3)c2c1)C(c1ccsc1)N1CCCC1 (stereo not drawn) [Example A1, N-(3-(3-(morpholinomethyl)phenyl)-1H-indazol-5-yl)-2-(pyrrolidin-1-yl)-2-(thiophen-3-yl)acetamide]	≤ 5	≤ 5	5 to 50	≤ 5	≤ 5	≤ 5
COc1cc(-c2n[nH]c3ccc(NC(=O)C(c4ccsc4)N4CCCC4)cc23)ccc1N1CCN(C)CC1 (stereo not drawn) [Example A10, N-(3-(3-methoxy-4-(4-methylpiperazin-1-yl)phenyl)-1H-indazol-5-yl)-2-(pyrrolidin-1-yl)-2-(thiophen-3-yl)acetamide]	≤ 5	≤ 5	≤ 5	≤ 5	≤ 5	≤ 5
CN(C)CCOc1ccc(-c2n[nH]c3ccc(NC(=O)C(c4ccsc4)N4CCCC4)cc23)cc1 (stereo not drawn) [Example A5, N-(3-(4-(2-(dimethylamino)ethoxy)phenyl)-1H-indazol-5-yl)-2-(pyrrolidin-1-yl)-2-(thiophen-3-yl)acetamide]	≤ 5	≤ 5	5 to 50	≤ 5	≤ 5	≤ 5
COc1cc(-c2n[nH]c3ccc(C(=O)NC(c4ccccc4)C4CC4)cc23)ccc1OC1CCNCC1 (stereo not drawn) [Example A13, N-(cyclopropyl(phenyl)methyl)-3-(3-methoxy-4-(piperidin-4-yloxy)phenyl)-1H-indazole-5-carboxamide]	≤ 5	≤ 5	≤ 5	≤ 5	≤ 5	≤ 5
O=C(Nc1ccc2[nH]nc(-c3ccc(CCN4CCOCC4)cc3)c2c1)C(c1ccsc1)N1CCCC1 (stereo not drawn) [Example A6, N-(3-(4-(2-morpholinoethyl)phenyl)-1H-indazol-5-yl)-2-(pyrrolidin-1-yl)-2-(thiophen-3-yl)acetamide]	≤ 5	≤ 5	≤ 5	≤ 5	≤ 5	≤ 5
O=C(Nc1ccc2[nH]nc(-c3ccc4c(c3)OCO4)c2c1)C(c1ccsc1)N1CCCC1 (stereo not drawn) [Example A14, N-(3-(benzo[d][1,3]dioxol-5-yl)-1H-indazol-5-yl)-2-(pyrrolidin-1-yl)-2-(thiophen-3-yl)acetamide]	≤ 5	≤ 5	–	≤ 5	≤ 5	≤ 5

Results, then the compound that gave them:

IC50 (human TTK) [µM]	IC50 (human PLK4) [µM]	IC50 (Aurora B) [µM]	GI50 [1] [µM]	GI50 [2] [µM]	GI50 [3] [µM]	SMILES
≤ 5	≤ 5	≤ 5	≤ 5	≤ 5	≤ 5	O=C(Nc1ccc2[nH]nc(-c3ccc4c(c3)OCCCO4)c2c1)C(c1ccsc1)N1CCCC1 (stereo not drawn) [Example A20, N-(3-(3,4-dihydro-2H-benzo[b][1,4]dioxepin-7-yl)-1H-indazol-5-yl)-2-(pyrrolidin-1-yl)-2-(thiophen-3-yl)acetamide]
≤ 5	≤ 5	≤ 5	≤ 5	≤ 5	≤ 5	COc1cc(-c2n[nH]c3ccc(NC(=O)C(c4ccsc4)N4CCCC4)cc23)ccc1OC1CCN(C)CC1 (stereo not drawn) [Example A21, N-(3-(3-methoxy-4-((1-methylpiperidin-4-yl)oxy)phenyl)-1H-indazol-5-yl)-2-(pyrrolidin-1-yl)-2-(thiophen-3-yl)acetamide]
≤ 5	≤ 5	–	5 to 20	≤ 5	≤ 5	O=C(Nc1ccc2[nH]nc(-c3ccc(CN4CCOCC4)cc3)c2c1)C1CCCc2ccccc21 (stereo not drawn) [Example A23, N-(3-(4-(morpholinomethyl)phenyl)-1H-indazol-5-yl)-1,2,3,4-tetrahydronaphthalene-1-carboxamide]
≤ 5	≤ 5	–	≤ 5	≤ 5	≤ 5	O=C(Nc1ccc2[nH]nc(-c3ccc4c(c3)OCCO4)c2c1)C(c1ccsc1)N1CCCC1 (stereo not drawn) [Example A15, N-(3-(2,3-dihydrobenzo[b][1,4]dioxin-6-yl)-1H-indazol-5-yl)-2-(pyrrolidin-1-yl)-2-(thiophen-3-yl)acetamide]
≤ 5	≤ 5	≤ 5	≤ 5	≤ 5	≤ 5	CN1CCOc2cc(-c3n[nH]c4ccc(NC(=O)C(c5ccsc5)N5CCCC5)cc34)ccc21 (stereo not drawn) [Example A17, N-(3-(4-methyl-3,4-dihydro-2H-benzo[b][1,4]oxazin-7-yl)-1H-indazol-5-yl)-2-(pyrrolidin-1-yl)-2-(thiophen-3-yl)acetamide]
